Measured values as given in US6828327B2, “Macroheterocylic compounds useful as kinase inhibitors” (Ortho-McNeil Pharmaceutical, Inc., priority 2000, dated 2004).

Legend:
Format in all cases: biochemical
PKC-βII = molecular target: T1, PKC-βII (Homo sapiens, UniProt P05771); test: Protein Kinase C Scintillation Proximity Assay (SPA), PKC-βII; details: inhibition value, recombinant human isozyme, 1 μM ATP
T1 construct: purchased PanVera, Madison Wis; host or cells: baculovirus expression vector
Experimental: (§1) The binding activity of a compound for Protein Kinase C (PKC) was assessed using a homogeneous Scintillation Proximity Assay according to the procedure below.
(§2) The different human PKC isozymes (were obtained from PanVera, Madison Wis. and had been prepared as recombinant enzymes produced from a baculovirus expression vector) were added to a reaction mixture containing a test compound, 20 mM HEPES (pH 7.4), 100 μM CaCl2, 10 mM MgCl2, 100 μg/mL phosphatidylserine, 20 μg/mL diacylglycerol, 1 μM ATP, 0.8 μCi (^33P)ATP, and 5 μg/mL biotinylated substrate peptide (Jing Zhao et al., J. Bio. Chem., 1998, 273, 23072). The reaction was incubated for 15 min at 30° C. Reactions were terminated by the addition of streptavidin-coated SPA beads (Amersham) in a solution containing 1 mM EGTA, 10 mM EDTA and 100 μM ATP. Beads were allowed to settle overnight and the plates read in a Wallac MICROBETA scintillation counter (PerkinElmer Life sciences, Wellesley, Mass.).
(§3) Values for inhibition of various PKC isozymes and GSK 3-β by certain compounds of the invention tested in the PKC SPA and GSK 3-β assays are shown in Table 1.

PKC-γ = molecular target: T2, PKC-γ (Homo sapiens, UniProt P05129); test: Protein Kinase C Scintillation Proximity Assay (SPA), PKC-γ; details: inhibition value, recombinant human isozyme, 1 μM ATP
T2 construct: purchased PanVera, Madison Wis; host or cells: baculovirus expression vector
Experimental: as §1, §2, §3

Insulin-R kinase = molecular target: T3, Insulin-R kinase (Homo sapiens, UniProt P06213); test: Biotinylated Peptide Substrate Assay, Insulin-R kinase
T3 construct: consists of residues 941-1313 of the cytoplasmic domain of the beta-subunit of the human insulin receptor; purchased BIOMOL, Plymouth Meeting, Pa; SE-195
Experimental: (§4) Assays to test inhibition of a compound for other kinases were preformed using methods that measure the amount of phosphorylation of a biotinylated peptide substrate. Biotinylated peptide substrates were selected from the literature as appropriate for the enzyme being evaluated.
(§5) A kinase reaction mix was prepared in 50 mM Tris-HCl pH=8, 10 mM MgCl2, 0.1 mM Na3VO4, 1 mM DTT, 10 μM ATP, 0.25-1 μM biotinylated peptide substrate, 0.2-0.8 μCuries per well ^33P-γ-ATP (2000-3000 Ci/mmol). Assay conditions vary slightly for each protein kinase, for example, insulin receptor kinase requires 10 mM MnCl2 for activity and Calmodulin-dependent protein kinase requires calmodulin and 10 mM CaCl2. The reaction mixture was dispensed into the wells of a streptavidin coated Flashplate and 1 μL drug stock in 100% DMSO was added to a 100 μL reaction volume resulting in a final concentration of 1% DMSO in the reaction. Enzyme was diluted in 50 mM Tris-HCl pH=8.0, 0.1% BSA and added to each well. The reaction was incubated for one hour at 30° C. in the presence of compound. After one hour the reaction mix was aspirated from the plate and the plate was washed with PBS containing 100 mM EDTA. The plate was read on a scintillation counter to determine ^33P-γ-ATP incorporated into the immobilized peptide. Test compounds were assayed in duplicate at 8 concentrations (100 uM, 10 uM, 1 uM, 100 nM, 10 nM, 1 nM, 100 pM, 10 pM). A maximum and minimum signal for the assay was determined on each plate.
(§6) The IC50 was calculated from the dose response curve of the percent inhibition of the maximum signal in the assay according to the formula:
(§7) % Inhibition=((MS−BS)/(TCS−BS))×100%
(§8) where MS=Maximum Signal, BS=Background Signal, TCS=Test Compound Signal. The percent inhibition was graphed against the log concentration of the test compound. Known inhibitor compounds as appropriate references for the kinase being assayed were also included on each plate.
(§9) VEGF-R (vascular endothelial growth factor receptor-2) is a fusion protein containing a polyhistidine tag at the N-terminus followed by amino acids 786-1343 of the rat VEGF-R2 kinase domain (GenBank Accession #U93306). Protein Kinase A is the catalytic subunit of cAMP dependent protein kinase-A purified from bovine heart (Upstate Biotech, Lake Placid, N.Y., Cat#14-114). CDK1 (cyclin dependent kinase 1) is isolated from insect cells expressing both the human CDK1 catalytic subunit and its positive regulatory subunit cyclin B (New England Biolabs, Beverly, Mass., Cat. #6020). Casein Kinase-1 is a protein truncation at amino acid 318 of the C-terminal portion of the rat CK1 delta isoform produced in E.coli (New England Biolabs, Beverly, Mass., Cat. #6030). […]

Map kinase ERK-2 = molecular target: T4, Map kinase ERK-2 (Rattus norvegicus, UniProt P63086); test: Biotinylated Peptide Substrate Assay, Map kinase ERK-2
T4 construct: polyhistidine (N); purchased BIOMOL, Plymouth Meeting, Pa; SE-137; host or cells: E. coli
Experimental: as §4, §5, §6, §7, §8, §9

VEGF-R = molecular target: T5, VEGF-R (Rattus norvegicus, UniProt O08775); test: Biotinylated Peptide Substrate Assay, VEGF-R; details: read-out: VEGF-R Kinase Assay (IC50 uM)
T5 construct: polyhistidine (N)
Experimental: as §4, §5, §6, §7, §8, §9

Calmodulin Kinase 2 = molecular target: T6, Calmodulin Kinase 2 (Rattus norvegicus, UniProt P11275); test: Biotinylated Peptide Substrate Assay, Calmodulin Kinase 2
T6 construct: purchased New England Biolabs, Beverly, Mass; 6060; host or cells: insect cells
Experimental: as §4, §5, §6, §7, §8, §9

PKC-βI = molecular target: T7, PKC-βI (Homo sapiens, UniProt P05771); test: Protein Kinase C Scintillation Proximity Assay (SPA), PKC-βI; details: inhibition value, recombinant human isozyme, 1 μM ATP
T7 construct: purchased PanVera, Madison Wis; host or cells: baculovirus expression vector
Experimental: as §1, §2, §3

EGF-R = molecular target: T8, EGF-R (Homo sapiens, UniProt P00533); test: Biotinylated Peptide Substrate Assay, EGF-R; details: read-out: EGF-R Kinase Assay (IC50 uM)
T8 construct: is purified from human A431 cell membranes; purchased Sigma, St. Louis, Mo; E3641; host or cells: human A431 cell membranes (endogenous receptor)
Experimental: as §4, §5, §6, §7, §8, §9

T5 sequence (O08775 786-1343): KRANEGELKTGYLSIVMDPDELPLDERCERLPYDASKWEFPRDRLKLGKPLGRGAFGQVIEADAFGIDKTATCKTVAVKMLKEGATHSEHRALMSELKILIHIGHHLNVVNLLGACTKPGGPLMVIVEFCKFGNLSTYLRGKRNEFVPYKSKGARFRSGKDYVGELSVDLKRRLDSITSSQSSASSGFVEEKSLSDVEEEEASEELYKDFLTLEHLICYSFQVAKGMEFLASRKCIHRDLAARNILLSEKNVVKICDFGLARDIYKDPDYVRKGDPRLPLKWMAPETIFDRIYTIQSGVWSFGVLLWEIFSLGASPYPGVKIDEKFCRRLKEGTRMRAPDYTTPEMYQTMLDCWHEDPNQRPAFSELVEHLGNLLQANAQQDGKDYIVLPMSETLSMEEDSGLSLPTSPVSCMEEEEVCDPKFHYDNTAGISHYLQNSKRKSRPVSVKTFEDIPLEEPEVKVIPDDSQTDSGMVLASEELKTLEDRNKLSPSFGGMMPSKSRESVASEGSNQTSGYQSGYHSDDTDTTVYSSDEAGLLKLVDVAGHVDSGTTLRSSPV
T4 sequence (P63086 whole entry): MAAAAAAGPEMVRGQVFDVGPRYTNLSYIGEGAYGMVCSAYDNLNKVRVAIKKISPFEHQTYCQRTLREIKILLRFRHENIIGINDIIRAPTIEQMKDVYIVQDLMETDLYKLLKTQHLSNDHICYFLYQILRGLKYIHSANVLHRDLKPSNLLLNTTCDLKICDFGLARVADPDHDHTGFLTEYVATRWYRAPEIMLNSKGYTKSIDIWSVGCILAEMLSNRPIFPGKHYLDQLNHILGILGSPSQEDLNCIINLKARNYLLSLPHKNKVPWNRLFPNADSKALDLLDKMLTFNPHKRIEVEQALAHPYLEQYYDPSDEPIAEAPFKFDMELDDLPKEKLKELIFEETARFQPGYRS
T1 sequence (P05771 1-673 isoform P05771-2): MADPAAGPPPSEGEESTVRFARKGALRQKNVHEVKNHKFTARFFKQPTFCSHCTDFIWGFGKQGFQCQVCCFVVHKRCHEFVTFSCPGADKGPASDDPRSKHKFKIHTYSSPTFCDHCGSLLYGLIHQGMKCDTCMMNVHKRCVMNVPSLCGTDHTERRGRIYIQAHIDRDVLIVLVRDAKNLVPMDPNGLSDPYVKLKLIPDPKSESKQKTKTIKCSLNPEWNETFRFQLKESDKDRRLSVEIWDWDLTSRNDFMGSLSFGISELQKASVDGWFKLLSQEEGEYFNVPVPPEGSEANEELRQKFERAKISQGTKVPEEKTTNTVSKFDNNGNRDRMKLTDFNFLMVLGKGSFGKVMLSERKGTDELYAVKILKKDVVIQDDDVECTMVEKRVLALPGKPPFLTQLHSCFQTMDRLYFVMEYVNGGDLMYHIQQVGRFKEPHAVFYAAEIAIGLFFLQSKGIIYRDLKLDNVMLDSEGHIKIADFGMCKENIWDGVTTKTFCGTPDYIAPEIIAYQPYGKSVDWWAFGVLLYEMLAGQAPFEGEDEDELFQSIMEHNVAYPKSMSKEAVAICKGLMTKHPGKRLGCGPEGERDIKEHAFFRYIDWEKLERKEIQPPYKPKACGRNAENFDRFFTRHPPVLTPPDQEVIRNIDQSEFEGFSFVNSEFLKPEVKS
T7 sequence (P05771 whole entry): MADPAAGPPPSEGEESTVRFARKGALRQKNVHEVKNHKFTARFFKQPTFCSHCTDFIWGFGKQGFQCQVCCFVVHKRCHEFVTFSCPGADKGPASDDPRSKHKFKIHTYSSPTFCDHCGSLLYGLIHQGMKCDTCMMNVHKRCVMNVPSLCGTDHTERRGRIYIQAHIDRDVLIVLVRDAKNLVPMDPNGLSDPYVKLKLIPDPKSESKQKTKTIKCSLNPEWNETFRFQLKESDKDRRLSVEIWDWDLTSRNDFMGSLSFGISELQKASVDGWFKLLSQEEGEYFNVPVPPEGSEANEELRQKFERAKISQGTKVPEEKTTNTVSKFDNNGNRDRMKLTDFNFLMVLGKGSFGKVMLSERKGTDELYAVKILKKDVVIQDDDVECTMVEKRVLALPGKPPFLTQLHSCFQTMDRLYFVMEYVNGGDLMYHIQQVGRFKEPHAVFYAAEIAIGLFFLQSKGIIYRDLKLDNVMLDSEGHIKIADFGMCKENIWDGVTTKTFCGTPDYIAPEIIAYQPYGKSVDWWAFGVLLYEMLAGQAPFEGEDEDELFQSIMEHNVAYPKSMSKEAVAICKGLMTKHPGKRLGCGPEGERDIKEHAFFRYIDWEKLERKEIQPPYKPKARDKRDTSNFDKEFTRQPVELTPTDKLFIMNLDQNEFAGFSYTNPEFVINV
T8 sequence (P00533 25-1210): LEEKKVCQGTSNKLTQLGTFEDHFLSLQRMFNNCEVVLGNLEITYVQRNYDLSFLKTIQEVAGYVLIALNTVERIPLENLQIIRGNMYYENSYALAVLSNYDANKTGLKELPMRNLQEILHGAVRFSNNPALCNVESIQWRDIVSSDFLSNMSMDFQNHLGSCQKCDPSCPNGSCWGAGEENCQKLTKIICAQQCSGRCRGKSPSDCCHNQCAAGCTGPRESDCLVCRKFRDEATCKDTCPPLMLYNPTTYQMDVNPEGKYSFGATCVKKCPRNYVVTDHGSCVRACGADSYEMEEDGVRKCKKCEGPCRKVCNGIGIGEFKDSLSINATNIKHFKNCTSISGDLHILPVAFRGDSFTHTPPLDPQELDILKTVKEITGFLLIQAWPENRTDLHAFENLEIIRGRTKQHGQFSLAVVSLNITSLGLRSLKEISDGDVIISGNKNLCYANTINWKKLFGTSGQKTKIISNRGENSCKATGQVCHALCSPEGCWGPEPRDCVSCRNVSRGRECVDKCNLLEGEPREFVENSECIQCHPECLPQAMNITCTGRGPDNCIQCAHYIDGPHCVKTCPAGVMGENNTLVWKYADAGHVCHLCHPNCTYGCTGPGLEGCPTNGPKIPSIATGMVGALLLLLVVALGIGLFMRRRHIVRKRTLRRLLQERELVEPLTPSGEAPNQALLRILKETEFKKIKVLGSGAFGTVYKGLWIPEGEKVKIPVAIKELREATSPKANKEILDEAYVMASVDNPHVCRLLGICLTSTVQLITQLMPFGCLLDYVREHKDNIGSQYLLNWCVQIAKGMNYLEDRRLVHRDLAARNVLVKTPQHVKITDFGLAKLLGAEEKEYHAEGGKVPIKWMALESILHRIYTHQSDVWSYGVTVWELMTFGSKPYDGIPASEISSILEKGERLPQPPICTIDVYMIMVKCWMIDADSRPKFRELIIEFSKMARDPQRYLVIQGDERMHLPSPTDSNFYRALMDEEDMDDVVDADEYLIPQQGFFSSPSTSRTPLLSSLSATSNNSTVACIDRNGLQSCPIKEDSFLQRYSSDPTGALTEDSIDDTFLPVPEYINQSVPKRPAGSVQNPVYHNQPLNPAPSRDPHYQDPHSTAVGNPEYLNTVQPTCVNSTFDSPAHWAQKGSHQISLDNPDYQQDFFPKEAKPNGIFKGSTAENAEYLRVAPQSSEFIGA
T3 sequence (P06213 980-1352): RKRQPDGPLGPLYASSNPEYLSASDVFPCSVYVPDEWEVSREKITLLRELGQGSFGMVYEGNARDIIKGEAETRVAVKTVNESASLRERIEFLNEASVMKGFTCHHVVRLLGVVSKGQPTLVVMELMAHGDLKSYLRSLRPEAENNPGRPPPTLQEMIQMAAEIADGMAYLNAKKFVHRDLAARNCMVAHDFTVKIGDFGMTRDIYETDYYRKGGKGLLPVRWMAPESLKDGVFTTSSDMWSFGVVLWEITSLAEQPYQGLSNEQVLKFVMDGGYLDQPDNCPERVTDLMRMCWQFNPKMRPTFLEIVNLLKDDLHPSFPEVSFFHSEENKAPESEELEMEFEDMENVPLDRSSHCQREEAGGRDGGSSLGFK

| Structure (SMILES) | IC50 (PKC-βII) [µM] | IC50 (PKC-γ) [µM] | IC50 (Insulin-R kinase) [µM] | IC50 (Map kinase ERK-2) [µM] | IC50 (VEGF-R) [µM] | IC50 (Calmodulin Kinase 2) [µM] | IC50 (PKC-βI) [µM] | IC50 (EGF-R) [µM] |
| --- | --- | --- | --- | --- | --- | --- | --- | --- |
| O=C1NC(=O)C2=C1c1cn(c3ccccc13)CCOCCOCCn1cc2c2cccnc21 [Cpd 10] | 0.519 | 7.8 | > 10 | > 10 | 1.2 | > 10 | 5.15 | > 10 |
| O=C1NC(=O)C2=C1c1cn(c3ncccc13)CCOCCOCCOCCn1cc2c2cccnc21 [Cpd 1] | 2.41 | 38.7 | > 10 | > 10 | > 10 | > 10 | 18.5 | > 10 |
| O=C1NC(=O)C2=C1c1cn(c3ncccc13)CCOCCOCCOCCOCCn1cc2c2cccnc21 [Cpd 2] | > 100 | > 100 | > 10 | > 10 | > 10 | > 10 | > 100 | > 10 |
| O=C1NC(=O)C2=C1c1cn(c3ccccc13)CCOCCOCCOCCn1cc2c2cccnc21 [Cpd 11] | 0.072 | 2.85 | > 10 | > 10 | 0.889 | > 10 | 1.06 | > 10 |
